Test results reported in the supplement of paper PMC10307832.

Columns and labels:
Experiment in all cases: relative viability (nuclei count vs DMSO), 5 days (fraction); higher = more cells survive
EHT 1864 + Pictilisib = compound: C1COCCN1CC2=CC(=O)C(=CO2)OCCCCCSC3=C4C=CC(=CC4=NC=C3)C(F)(F)F [EHT 1864] + CS(=O)(=O)N1CCN(Cc2cc3nc(-c4cccc5[nH]ncc45)nc(N4CCOCC4)c3s2)CC1 [Pictilisib] (partner 1 µM)
Method in brief: (§1)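 Lung cancer cell lines in 1536-well plates got either a single drug or a fixed anchor-drug dose together with five library-drug doses (not always all listed) in √10 steps, by pin tool, on the day after seeding. Nuclei were counted after 5 days, and relative viability is the treated-to-vehicle ratio of nuclei counts. Values are medians of duplicate plates.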

EHT 1864 + Alpelisib = compound: C1COCCN1CC2=CC(=O)C(=CO2)OCCCCCSC3=C4C=CC(=CC4=NC=C3)C(F)(F)F [EHT 1864] + Cc1nc(NC(=O)N2CCC[C@H]2C(N)=O)sc1-c1ccnc(C(C)(C)C(F)(F)F)c1 [Alpelisib] (partner 2 µM)
Method in brief: as §1

EHT 1864 + Phenformin = compound: C1COCCN1CC2=CC(=O)C(=CO2)OCCCCCSC3=C4C=CC(=CC4=NC=C3)C(F)(F)F [EHT 1864] + N=C(N)NC(=N)NCCc1ccccc1 [Phenformin] (partner 250 µM)
Method in brief: as §1

EHT 1864 + AZD7762 = compound: C1COCCN1CC2=CC(=O)C(=CO2)OCCCCCSC3=C4C=CC(=CC4=NC=C3)C(F)(F)F [EHT 1864] + NC(=O)Nc1cc(-c2cccc(F)c2)sc1C(=O)N[C@H]1CCCNC1 [AZD7762] (partner 0.2 µM)
Method in brief: as §1

Cell Line	relative viability (EHT 1864 + Pictilisib; first compound 0.04 µM)	relative viability (EHT 1864 + Pictilisib; first compound 0.1265 µM)	relative viability (EHT 1864 + Pictilisib; first compound 0.4 µM)	relative viability (EHT 1864 + Pictilisib; first compound 1.265 µM)	relative viability (EHT 1864 + Pictilisib; first compound 4 µM)	relative viability (EHT 1864 + Alpelisib; first compound 0.04 µM)	relative viability (EHT 1864 + Alpelisib; first compound 0.1265 µM)	relative viability (EHT 1864 + Alpelisib; first compound 0.4 µM)	relative viability (EHT 1864 + Alpelisib; first compound 1.265 µM)	relative viability (EHT 1864 + Alpelisib; first compound 4 µM)	relative viability (EHT 1864 + Phenformin; first compound 0.04 µM)	relative viability (EHT 1864 + Phenformin; first compound 0.4 µM)	relative viability (EHT 1864 + Phenformin; first compound 1.265 µM)	relative viability (EHT 1864 + Phenformin; first compound 4 µM)	relative viability (EHT 1864 + AZD7762; first compound 0.04 µM)	relative viability (EHT 1864 + AZD7762; first compound 0.4 µM)	relative viability (EHT 1864 + AZD7762; first compound 1.265 µM)	relative viability (EHT 1864 + AZD7762; first compound 4 µM)	relative viability (EHT 1864 + Phenformin; first compound 0.1265 µM)	relative viability (EHT 1864 + AZD7762; first compound 0.1265 µM)
NCI-H2087	0.942	0.698	0.952	0.72	0.97	0.929	1	0.902	1.1	0.802	0.453	0.462	0.434	0.518	1.25	1.2	1.25	1.23		
NCI-H2126	0.53	0.44	0.516	0.521	0.514	0.755	0.757	0.718	0.801	0.748	0.557	0.571	0.543	0.567	1.02	0.95	0.93	0.957	0.515	0.866
NCI-H2170	0.371	0.272	0.374	0.309	0.275	0.751	0.759	0.771	0.793	0.793	0.442	0.392	0.368	0.37	0.77	0.9	0.86	0.963	0.349	0.764
NCI-H2347	0.596		0.582	0.639	0.583	1.02	0.868	0.989	1.03	1.2	0.585	0.478		0.46	0.776	0.621	0.727	0.792	0.432	0.654
NCI-H2405	0.447	0.398	0.456		0.439	0.789	0.767	0.877		0.719	0.445	0.44	0.289	0.37	0.8	0.728	0.687	0.697	0.42	0.657
NCI-H3122	0.564	0.428	0.583	0.617	0.675	0.869	0.751	0.774	0.732	0.766	0.415	0.362	0.345	0.304	0.882	0.911	0.985	0.878	0.373	0.808
PC-3 [JPC-3]	0.816	0.577	0.853	0.928	0.657	1.04	0.944	1.01	0.957	0.987	0.507	0.451	0.478	0.51	0.825	0.808	0.73	0.863	0.439	0.753
PC-14	0.664	0.59	0.686	0.637	0.582	0.916	0.888	0.952	0.901	0.846	0.652	0.615	0.594	0.513	0.368	0.394	0.304	0.433		0.248
RERF-LC-KJ	0.617	0.521	0.459	0.491	0.479	0.759	0.743	0.755	0.947	0.776	0.381	0.453	0.393	0.404	0.893	0.96	0.939	1.43	0.428	0.873
